Laboratory results from patent publication US20240343855A1, “PROCESS FOR THE PREPARATION OF POLYCARBODIIMIDES WITH AZIRIDINE FUNCTIONS, WHICH MAY BE USED AS CROSSLINKING AGENT” (Stahl International B.V., priority 2021, published 2024).

Columns and labels:
[1] = tested on: GFP-based mouse embryonic stem (mES) reporter cell lines; conditions: ToxTracker; positive = at least 2 fold increase in GFP expression in any reporter
From the text: (§1) The genotoxicity can be measured by the ToxTracker® assay (Toxys, Leiden, The Netherlands) as further described herein. The ToxTracker® assay can be applied for pure substances or for compositions. The ToxTracker assay is a panel of six validated GFP-based mouse embryonic stem (mES) reporter cell lines that can be used to identify the biological reactivity and potential carcinogenic properties of newly developed compounds in a single test. ToxTracker is a mammalian stem cell-based assay that monitors activation of specific cellular signalling pathways for detection of the biological reactivity of compounds. […] A compound is considered not genotoxic when it induces a smaller than 2-fold increase in GFP expression in any of the reporters measured by the ToxTracker® assay (Toxys, Leiden, The Netherlands).
(§2) The genotoxicity was measured by the ToxTracker® assay (Toxys, Leiden, The Netherlands), which can be applied for pure substances or for compositions. […]
(§3) The six independent mES reporter cell lines were seeded in gelatin-coated 96-well cell culture plates in 200 μl mES cell medium (50.000 cells per well). […] Induction of the GFP reporters was determined after 24 h exposure using a flow cytometer. Only GFP expression in intact single cells was determined. Mean GFP fluorescence was measured and used to calculate GFP reporter induction compared to a vehicle control treatment. […]

Rtkn-GFP reporter = assay type: cell-based, mouse; conditions: 24 h exposure; in absence and presence of S9
From the text: as §1, with “compounds. In contrast to the cancer-derived cell lines that are currently used for in vitro genotoxicity testing, stem cells are genetically stable and proficient in all cellular pathways required for accurate detection of potentially carcinogenic properties of compounds. Extensive whole-genome transcription profiling has led to identification of a panel of biomarker genes that are preferentially activated upon exposure to different classes of carcinogens and toxicants.” for “compounds.”
as §2
as §3, with “treatment. Cytotoxicity was estimated by cell count after 24 h exposure using a flow cytometer and was expressed as percentage of intact cells after 24 h exposure compared to vehicle exposed controls.” for “treatment.”

Btg2-GFP reporter = assay type: cell-based, mouse; conditions: 24 h exposure; in absence and presence of S9
From the text: as §1, with “compounds. In contrast to the cancer-derived cell lines that are currently used for in vitro genotoxicity testing, stem cells are genetically stable and proficient in all cellular pathways required for accurate detection of potentially carcinogenic properties of compounds. Extensive whole-genome transcription profiling has led to identification of a panel of biomarker genes that are preferentially activated upon exposure to different classes of carcinogens and toxicants.” for “compounds.”
as §2
as §3, with “treatment. Cytotoxicity was estimated by cell count after 24 h exposure using a flow cytometer and was expressed as percentage of intact cells after 24 h exposure compared to vehicle exposed controls.” for “treatment.”

Bscl2-GFP reporter = assay type: cell-based, mouse; conditions: 24 h exposure; in absence and presence of S9
From the text: as §1, with “compounds. In contrast to the cancer-derived cell lines that are currently used for in vitro genotoxicity testing, stem cells are genetically stable and proficient in all cellular pathways required for accurate detection of potentially carcinogenic properties of compounds. Extensive whole-genome transcription profiling has led to identification of a panel of biomarker genes that are preferentially activated upon exposure to different classes of carcinogens and toxicants.” for “compounds.”
as §2
as §3, with “treatment. Cytotoxicity was estimated by cell count after 24 h exposure using a flow cytometer and was expressed as percentage of intact cells after 24 h exposure compared to vehicle exposed controls.” for “treatment.”

SMILES: O=C(CCN1CC1)OCC(CO)(COC(=O)CCN1CC1)COC(=O)CCN1CC1 [CL-427, 1-Aziridinepropanoic acid, 1,1′-[2-[[3-(1-aziridinyl)-1-oxopropoxy]methyl]-2-(hydroxymethyl)-1,3-propanediyl]ester]
- genotoxicity conclusion [1]: considered genotoxic
- activation of the Rtkn-GFP reporter (Rtkn-GFP reporter): activated
- activation of the Btg2-GFP reporter (Btg2-GFP reporter): activated
- activation of the Bscl2-GFP reporter (Bscl2-GFP reporter): activated
